# In ChEMBL document CHEMBL3400001, “Tricyclic 1,5-naphthyridinone oxabicyclooctane-linked novel bacterial topoisomerase inhibitors as broad-spectrum antibacterial agents-SAR of left-hand-side moiety (Part-2)” (Bioorg Med Chem Lett, 2015):
# Biological target: Voltage-gated inwardly rectifying potassium channel KCNH2 (Homo sapiens, UniProt Q12809)
# Test: Inhibition of human ERG by MK499 binding assay
# Conditions: not given
# Voltage-gated inwardly rectifying potassium channel KCNH2, sequence (Q12809 whole entry): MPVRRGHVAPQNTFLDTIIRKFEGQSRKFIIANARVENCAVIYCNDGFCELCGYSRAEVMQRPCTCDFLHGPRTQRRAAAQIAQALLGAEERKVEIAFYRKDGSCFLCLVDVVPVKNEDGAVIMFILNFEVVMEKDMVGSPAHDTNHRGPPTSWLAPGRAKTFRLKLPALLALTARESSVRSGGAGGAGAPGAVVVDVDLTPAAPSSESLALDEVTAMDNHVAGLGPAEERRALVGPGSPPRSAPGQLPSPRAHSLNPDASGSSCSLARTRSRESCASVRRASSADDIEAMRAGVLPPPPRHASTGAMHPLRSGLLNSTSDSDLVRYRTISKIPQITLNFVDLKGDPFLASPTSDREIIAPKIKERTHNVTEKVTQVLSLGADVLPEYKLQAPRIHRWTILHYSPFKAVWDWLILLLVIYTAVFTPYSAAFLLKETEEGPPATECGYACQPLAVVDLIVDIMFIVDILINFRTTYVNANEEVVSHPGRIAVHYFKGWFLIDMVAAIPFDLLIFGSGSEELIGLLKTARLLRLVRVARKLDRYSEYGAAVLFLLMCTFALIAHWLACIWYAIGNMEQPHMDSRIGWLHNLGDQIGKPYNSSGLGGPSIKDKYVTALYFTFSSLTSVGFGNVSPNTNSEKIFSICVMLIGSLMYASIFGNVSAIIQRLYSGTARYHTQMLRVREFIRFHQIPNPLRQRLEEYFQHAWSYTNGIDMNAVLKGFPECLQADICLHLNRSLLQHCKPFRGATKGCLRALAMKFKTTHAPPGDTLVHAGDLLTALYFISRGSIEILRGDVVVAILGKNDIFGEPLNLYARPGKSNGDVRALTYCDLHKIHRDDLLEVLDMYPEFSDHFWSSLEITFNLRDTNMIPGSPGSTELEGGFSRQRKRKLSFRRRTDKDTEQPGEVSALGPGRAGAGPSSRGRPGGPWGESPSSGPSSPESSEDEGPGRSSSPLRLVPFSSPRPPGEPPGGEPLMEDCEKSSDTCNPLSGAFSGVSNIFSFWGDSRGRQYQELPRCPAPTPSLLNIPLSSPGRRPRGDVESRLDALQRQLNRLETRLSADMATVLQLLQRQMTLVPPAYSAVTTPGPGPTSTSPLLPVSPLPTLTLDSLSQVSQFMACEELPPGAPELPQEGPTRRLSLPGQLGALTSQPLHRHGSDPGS
row,Compound,IC50 [µM]
1,O=C1COc2ccc(CNC34CCC(C[C@]5(O)CN6C(=O)CCc7ncc(F)c5c76)(CC3)OC4)nc2N1,> 60
2,O=C1COc2ccc(CNC34CCC(C[C@@]5(O)Cn6c(=O)c(F)cc7ncc(F)c5c76)(CC3)OC4)nc2N1,> 60
3,O=C1COc2ccc(CNC34CCC(CC5(O)Cn6c(=O)cc(Cl)c7ncc(F)c5c76)(CC3)OC4)nc2N1 (racemic),> 60
4,O=C1COc2ccc(CNC34CCC(C[C@]5(O)Cn6c(=O)ccc7ncc(Cl)c5c76)(CC3)OC4)nc2N1,53.3
5,O=C1COc2ccc(CNC34CCC(CC5(O)Cn6c(=O)c(Cl)cc7ncc(F)c5c76)(CC3)OC4)nc2N1 (racemic),> 60

# Tested on: Staphylococcus aureus
# Test: Ratio of MIC for quinolone-resistant Staphylococcus aureus MS5935 to MIC for quinolone-[…]
# Format: functional
# Conditions: not given
row,Compound,Ratio
1,C[C@H]1COc2c(N3CCN(C)CC3)c(F)cc3c(=O)c(C(=O)O)cn1c23.C[C@H]1COc2c(N3CCN(C)CC3)c(F)cc3c(=O)c(C(=O)O)cn1c23.O [LEVOFLOXACIN],<4
2,O=C1COc2ccc(CNC34CCC(C[C@]5(O)CN6C(=O)CCc7ncc(F)c5c76)(CC3)OC4)nc2N1,<4
3,O=C1COc2ccc(CNC34CCC(C[C@@]5(O)Cn6c(=O)c(F)cc7ncc(F)c5c76)(CC3)OC4)nc2N1,<4
4,O=C1COc2ccc(CNC34CCC(CC5(O)Cn6c(=O)cc(Cl)c7ncc(F)c5c76)(CC3)OC4)nc2N1 (racemic),<4
5,O=C1COc2ccc(CNC34CCC(C[C@]5(O)Cn6c(=O)ccc7ncc(Cl)c5c76)(CC3)OC4)nc2N1,<4
6,O=C1COc2ccc(CNC34CCC(CC5(O)Cn6c(=O)c(Cl)cc7ncc(F)c5c76)(CC3)OC4)nc2N1 (racemic),<4

# Tested on: Streptococcus pneumoniae
# Test: Antimicrobial activity against Streptococcus pneumoniae IID554 by micro broth dilution or agar based method
# Format: functional
# Conditions: Streptococcus pneumoniae, IID554; read-out: MIC
row,Compound,MIC [µg/mL]
1,O=C1COc2ccc(CNC34CCC(C[C@]5(O)CN6C(=O)CCc7ncc(F)c5c76)(CC3)OC4)nc2N1,8
2,O=C1COc2ccc(CNC34CCC(C[C@@]5(O)Cn6c(=O)c(F)cc7ncc(F)c5c76)(CC3)OC4)nc2N1,4
3,O=C1COc2ccc(CNC34CCC(CC5(O)Cn6c(=O)cc(Cl)c7ncc(F)c5c76)(CC3)OC4)nc2N1 (racemic),2
4,O=C1COc2ccc(CNC34CCC(C[C@]5(O)Cn6c(=O)ccc7ncc(Cl)c5c76)(CC3)OC4)nc2N1,1
5,O=C1COc2ccc(CNC34CCC(CC5(O)Cn6c(=O)c(Cl)cc7ncc(F)c5c76)(CC3)OC4)nc2N1 (racemic),2

# Tested on: Staphylococcus aureus
# Test: Antimicrobial activity against Staphylococcus aureus Smith by micro broth dilution or agar based method
# Format: functional
# Conditions: Staphylococcus aureus, Smith; read-out: MIC
row,Compound,MIC [µg/mL]
1,O=C1COc2ccc(CNC34CCC(C[C@]5(O)CN6C(=O)CCc7ncc(F)c5c76)(CC3)OC4)nc2N1,8
2,O=C1COc2ccc(CNC34CCC(C[C@@]5(O)Cn6c(=O)c(F)cc7ncc(F)c5c76)(CC3)OC4)nc2N1,4
3,O=C1COc2ccc(CNC34CCC(CC5(O)Cn6c(=O)cc(Cl)c7ncc(F)c5c76)(CC3)OC4)nc2N1 (racemic),2
4,O=C1COc2ccc(CNC34CCC(C[C@]5(O)Cn6c(=O)ccc7ncc(Cl)c5c76)(CC3)OC4)nc2N1,0.5
5,O=C1COc2ccc(CNC34CCC(CC5(O)Cn6c(=O)c(Cl)cc7ncc(F)c5c76)(CC3)OC4)nc2N1 (racemic),2

# Tested on: Haemophilus influenzae
# Test: Antimicrobial activity against Haemophilus influenzae ATCC 49247 by micro broth dilution or agar based method
# Format: functional
# Conditions: not given
row,Compound,MIC [µg/mL]
1,O=C1COc2ccc(CNC34CCC(C[C@@]5(O)Cn6c(=O)c(F)cc7ncc(F)c5c76)(CC3)OC4)nc2N1,8
2,O=C1COc2ccc(CNC34CCC(CC5(O)Cn6c(=O)cc(Cl)c7ncc(F)c5c76)(CC3)OC4)nc2N1 (racemic),8
3,O=C1COc2ccc(CNC34CCC(CC5(O)Cn6c(=O)c(Cl)cc7ncc(F)c5c76)(CC3)OC4)nc2N1 (racemic),8

# Tested on: Enterococcus faecium
# Test: Antimicrobial activity against vancomycin-resistant Enterococcus faecium A2373 expressing VanA by micro broth dilution or agar based method
# Format: functional
# Conditions: Enterococcus faecium, A2373; read-out: MIC
row,Compound,MIC [µg/mL]
1,O=C1COc2ccc(CNC34CCC(C[C@]5(O)CN6C(=O)CCc7ncc(F)c5c76)(CC3)OC4)nc2N1,32
2,O=C1COc2ccc(CNC34CCC(C[C@@]5(O)Cn6c(=O)c(F)cc7ncc(F)c5c76)(CC3)OC4)nc2N1,32
3,O=C1COc2ccc(CNC34CCC(CC5(O)Cn6c(=O)cc(Cl)c7ncc(F)c5c76)(CC3)OC4)nc2N1 (racemic),32
4,O=C1COc2ccc(CNC34CCC(C[C@]5(O)Cn6c(=O)ccc7ncc(Cl)c5c76)(CC3)OC4)nc2N1,8
5,O=C1COc2ccc(CNC34CCC(CC5(O)Cn6c(=O)c(Cl)cc7ncc(F)c5c76)(CC3)OC4)nc2N1 (racemic),32

# Tested on: Staphylococcus aureus
# Test: Antimicrobial activity against quinolone-sensitive Staphylococcus aureus MS5935
# Conditions: not given
row,Compound,MIC [µg/mL]
1,C[C@H]1COc2c(N3CCN(C)CC3)c(F)cc3c(=O)c(C(=O)O)cn1c23.C[C@H]1COc2c(N3CCN(C)CC3)c(F)cc3c(=O)c(C(=O)O)cn1c23.O [LEVOFLOXACIN],0.25

# Tested on: Staphylococcus aureus
# Test: Antimicrobial activity against quinolone-resistant Staphylococcus aureus MS5935
# Format: functional
# Conditions: not given
row,Compound,MIC [µg/mL]
1,C[C@H]1COc2c(N3CCN(C)CC3)c(F)cc3c(=O)c(C(=O)O)cn1c23.C[C@H]1COc2c(N3CCN(C)CC3)c(F)cc3c(=O)c(C(=O)O)cn1c23.O [LEVOFLOXACIN],> 16

# Tested on: Enterococcus faecalis
# Test: Antimicrobial activity against Enterococcus faecalis ATCC 29212 MB by micro broth dilution or agar based method
# Format: functional
# Conditions: Enterococcus faecalis, ATCC 29212 MB; read-out: MIC
row,Compound,MIC [µg/mL]
1,O=C1COc2ccc(CNC34CCC(C[C@]5(O)CN6C(=O)CCc7ncc(F)c5c76)(CC3)OC4)nc2N1,16
2,O=C1COc2ccc(CNC34CCC(C[C@@]5(O)Cn6c(=O)c(F)cc7ncc(F)c5c76)(CC3)OC4)nc2N1,16
3,O=C1COc2ccc(CNC34CCC(CC5(O)Cn6c(=O)cc(Cl)c7ncc(F)c5c76)(CC3)OC4)nc2N1 (racemic),8
4,O=C1COc2ccc(CNC34CCC(C[C@]5(O)Cn6c(=O)ccc7ncc(Cl)c5c76)(CC3)OC4)nc2N1,4
5,O=C1COc2ccc(CNC34CCC(CC5(O)Cn6c(=O)c(Cl)cc7ncc(F)c5c76)(CC3)OC4)nc2N1 (racemic),8

# Tested on: Pseudomonas aeruginosa
# Test: Antimicrobial activity against Pseudomonas aeruginosa PAO1 by micro broth dilution or agar based method
# Format: functional
# Conditions: Pseudomonas aeruginosa, PAO1; read-out: MIC
row,Compound,MIC [µg/mL]
1,O=C1COc2ccc(CNC34CCC(C[C@]5(O)CN6C(=O)CCc7ncc(F)c5c76)(CC3)OC4)nc2N1,32
2,O=C1COc2ccc(CNC34CCC(C[C@@]5(O)Cn6c(=O)c(F)cc7ncc(F)c5c76)(CC3)OC4)nc2N1,32
3,O=C1COc2ccc(CNC34CCC(CC5(O)Cn6c(=O)cc(Cl)c7ncc(F)c5c76)(CC3)OC4)nc2N1 (racemic),32
4,O=C1COc2ccc(CNC34CCC(C[C@]5(O)Cn6c(=O)ccc7ncc(Cl)c5c76)(CC3)OC4)nc2N1,32
5,O=C1COc2ccc(CNC34CCC(CC5(O)Cn6c(=O)c(Cl)cc7ncc(F)c5c76)(CC3)OC4)nc2N1 (racemic),32

# Tested on: Escherichia coli
# Test: Antimicrobial activity against Escherichia coli ATCC 25922 by micro broth dilution or agar based method
# Format: functional
# Conditions: Escherichia coli, ATCC 25922; read-out: MIC
row,Compound,MIC [µg/mL]
1,O=C1COc2ccc(CNC34CCC(C[C@]5(O)CN6C(=O)CCc7ncc(F)c5c76)(CC3)OC4)nc2N1,32
2,O=C1COc2ccc(CNC34CCC(C[C@@]5(O)Cn6c(=O)c(F)cc7ncc(F)c5c76)(CC3)OC4)nc2N1,16
3,O=C1COc2ccc(CNC34CCC(CC5(O)Cn6c(=O)cc(Cl)c7ncc(F)c5c76)(CC3)OC4)nc2N1 (racemic),8
4,O=C1COc2ccc(CNC34CCC(C[C@]5(O)Cn6c(=O)ccc7ncc(Cl)c5c76)(CC3)OC4)nc2N1,8
5,O=C1COc2ccc(CNC34CCC(CC5(O)Cn6c(=O)c(Cl)cc7ncc(F)c5c76)(CC3)OC4)nc2N1 (racemic),16

# Tested on: Moraxella catarrhalis
# Test: Antimicrobial activity against Moraxella catarrhalis ATCC 25238 by micro broth dilution or agar based method
# Format: functional
# Conditions: not given
row,Compound,MIC [µg/mL]
1,O=C1COc2ccc(CNC34CCC(C[C@@]5(O)Cn6c(=O)c(F)cc7ncc(F)c5c76)(CC3)OC4)nc2N1,1
2,O=C1COc2ccc(CNC34CCC(CC5(O)Cn6c(=O)cc(Cl)c7ncc(F)c5c76)(CC3)OC4)nc2N1 (racemic),1
3,O=C1COc2ccc(CNC34CCC(CC5(O)Cn6c(=O)c(Cl)cc7ncc(F)c5c76)(CC3)OC4)nc2N1 (racemic),2

# Tested on: Acinetobacter baumannii
# Test: Antimicrobial activity against Acinetobacter baumannii IID876 by micro broth dilution or agar based method
# Format: functional
# Conditions: Acinetobacter baumannii, IID876; read-out: MIC
row,Compound,MIC [µg/mL]
1,O=C1COc2ccc(CNC34CCC(C[C@]5(O)CN6C(=O)CCc7ncc(F)c5c76)(CC3)OC4)nc2N1,32
2,O=C1COc2ccc(CNC34CCC(C[C@@]5(O)Cn6c(=O)c(F)cc7ncc(F)c5c76)(CC3)OC4)nc2N1,32
3,O=C1COc2ccc(CNC34CCC(CC5(O)Cn6c(=O)cc(Cl)c7ncc(F)c5c76)(CC3)OC4)nc2N1 (racemic),8
4,O=C1COc2ccc(CNC34CCC(C[C@]5(O)Cn6c(=O)ccc7ncc(Cl)c5c76)(CC3)OC4)nc2N1,8
5,O=C1COc2ccc(CNC34CCC(CC5(O)Cn6c(=O)c(Cl)cc7ncc(F)c5c76)(CC3)OC4)nc2N1 (racemic),16
